Assay results from patent publication US5162523A, “Cephalosporin antibacterial compounds” (Hoffmann-La Roche Inc., priority 1990, dated 1992).
Where a name gives a salt, the structure may show the parent alone.

Assay: Stability of the product (observation during preparation)
Type: physicochemical
Details: observed during preparation and purification

## CCn1cc(C(=O)O)c(=O)c2cc(F)c(N3CCN(C=N[C@@H]4C(=O)N5[C@@H]4SC(C)(C)[C@@H]5C(=O)O)CC3)nc21 [Compound H, [2S-(2α,5α,6β)]-7-[4-[[(2-Carboxy-2,3-dimethyl-7-oxo-4-thia-1-azabicyclo[3.2.0]-hept-6-yl)imino]methyl]-1-piperazinyl]-1-ethyl-6-fluoro-1,4-dihydro-4-oxo-1,8-naphthyridine-carboxylic acid disodium salt]
  stability of the product: very unstable
